How the values were obtained:
[1] = Fecal Incubation Stability; format: in vitro ADME; details: fecal slurry, anaerobic, 1 or 10 μM
Procedure: Fecal Incubation Stability. This assay was used to assess the stability of an acylated active agent in a large intestine. All experiments were performed in an anaerobic chamber containing 90% nitrogen, 5% hydrogen and 5% carbon dioxide. Fecal matter in a slurry (15% VW is added to 96 well plates containing YCFA media or other suitable media (1.6 mL). Compounds were added to each individual well to reach a final analyte concentration of 1 or 10 μM, and the material was mixed by pipetting. At set time points a sample was removed, quenched with acetonitrile, and analyzed by LC/MS.

[2] = Stability in Simulated Gastric Fluid (SGF); format: in vitro ADME; details: SGF pH 1.6 with pepsin, 1 μM, 37° C.
Method in brief: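 Compound at 1 μM (from 1 mM DMSO stock) incubated at 37 °C in SGF, pH 1.6 NaCl/HCl buffer with FaSSIF powder and 0.1 mg/mL pepsin. Aliquots quenched with an equal volume of acetonitrile at T0 and regular intervals; degradation rate by LC/MS.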

[3] = Stability in Simulated Intestinal Fluid (SIF); format: in vitro ADME; details: for Assay 2 (SIF) (% @ Remaining 4 hours): SIF pH 6.7 with pancreatin, 1 μM, 37° C.; for selective delivery to the upper intestine: conclusion drawn from Table 1 (SGF and SIF stability)
Procedure: SIF Stability of acylated active agents in Simulated Intestinal Fluid (SIF). This assay was used to assess the stability of an acylated active agent in a small intestine.
Phosphate buffer was prepared by dissolving 0.42 g of sodium hydroxide pellets and 3.95 g of monobasic sodium phosphate monohydrate and 6.19 g of sodium chloride in ultrapure water (MilliQ®, Millipore Sigma, Darmstadt, Germany). The pH was adjusted to 6.7 using aq. HCl and aq. NaOH, as necessary, and the solution was diluted with ultrapure water to produce 1 L of the pH 6.7 buffer.
112 mg FaSSIF powder (Biorelevant™, London, UK) was dissolved in 50 mL of the pH 6.7 buffer. 2 to 3 mL of the resulting solution were then added to 500 mg pancreatin (Millipore Sigma, Darmstadt, Germany). The resulting mixture was agitated by finger tapping the vessel containing the mixture until milky suspension formed. At this time, the remainder of the 50 mL FaSSiF/pH 6.7 buffer solution was added. The resulting suspension was flipped upside down 10 times to produce SIF, which was used fresh.
Test compounds were dissolved in DMSO stock to 1 mM. An aliquot of the DMSO stock solution was removed and diluted in the SIF media in 15 mL falcon tubes to produce a mixture with a tested compound concentration of 1 μM. A 1 mL aliquot was immediately removed and diluted once with 1 volume of acetonitrile for T0 timepoint. The mixture was sealed and agitated at 37° C. in an incubator. Aliquots (1 mL) were removed at regular intervals and immediately quenched by the addition of 1 volume of acetonitrile. The resulting samples were analyzed by LC/MS to determine degradation rates.

[4] = system: CD4^+CD25^+ Treg cells; assay: In vivo induction of CD4+CD25+ Treg cells in high-fat diet fed mice; details: C57BL/6 mice fed a high-fat diet; 6% in diet ad libitum; compared to EGCG, acetate, or their combination as separate compounds
Excerpt: Acylated catechin polyphenols disclosed herein may be useful in modulating cancer markers and for treating cancer.

| Compound | Assay 3 (% Remaining at 24 h) [1] | Assay 1 (SGF) (% Remaining @ 1 hours) [2] | Assay 2 (SIF) (% @ Remaining 4 hours) [3] | selective delivery to the upper intestine [3] | induction of CD4^+CD25^+ Treg cells [4] |
| --- | --- | --- | --- | --- | --- |
| CCCC(=O)O[C@@H]1[C@@H](OC(=O)CCC)[C@@H](Oc2ccc(N)cc2C(=O)O)OC[C@@H]1OC(=O)CCC [Compound 17, 5-amino-2-[(2R,3R,4S,5S)-3,4,5-tri(butanoyloxy)tetrahydropyran-2-yl]oxy-benzoic acid] | C (>75% of the tested compound remaining) | C (>75% of the tested compound remaining) | A (<25% of the tested compound remaining) | can be selectively delivered to the upper intestine |  |
| CCCC(=O)Oc1cc(OC(=O)CCC)c2c(c1)O[C@H](c1cc(OC(=O)CCC)c(OC(=O)CCC)c(OC(=O)CCC)c1)[C@H](OC(=O)c1cc(OC(=O)CCC)c(OC(=O)CCC)c(OC(=O)CCC)c1)C2 [Compound 1, [(2R,3R)-5,7-di(butanoyloxy)-2-[3,4,5-tri(butanoyloxy)phenyl]chroman-3-yl] 3,4,5-tri(butanoyloxy)benzoate] | C (>75% of the tested compound remaining) | C (>75% of the tested compound remaining) | C (>75% of the tested compound remaining) |  |  |
| CC(=O)OC[C@H]1O[C@@H](Oc2c(C)c(C)c3c(c2C)CC[C@@](C)(CCC[C@H](C)CCC[C@H](C)CCCC(C)C)O3)[C@H](OC(C)=O)[C@@H](OC(C)=O)[C@@H]1OC(C)=O [Compound 19, [(2R,3R,4S,5R,6S)-3,4,5-triacetoxy-6-[(2R)-2,5,7,8-tetramethyl-2-[(4R,8R)-4,8,12-trimethyltridecyl]chroman-6-yl]oxy-tetrahydropyran-2-yl]methyl acetate] | C (>75% of the tested compound remaining) | C (>75% of the tested compound remaining) | C (>75% of the tested compound remaining) |  |  |
| CC(=O)Oc1cc(OC(C)=O)c2c(c1)O[C@H](c1cc(OC(C)=O)c(OC(C)=O)c(OC(C)=O)c1)[C@H](OC(=O)c1cc(OC(C)=O)c(OC(C)=O)c(OC(C)=O)c1)C2 [Compound 2, [(2R,3R)-5,7-diacetoxy-2-(3,4,5-triacetoxyphenyl)chroman-3-yl] 3,4,5-triacetoxybenzoate] | A (<25% of the tested compound remaining) | C (>75% of the tested compound remaining) | A (<25% of the tested compound remaining) | can be selectively delivered to the upper intestine | synergistic induction |
| CCC(=O)Oc1cc(OC(=O)CC)c2c(=O)c(OC(=O)CC)c(-c3ccc(OC(=O)CC)c(OC(=O)CC)c3)oc2c1 [Compound 14, [4-[4-oxo-3,5,7-tri(propanoyloxy)chromen-2-yl]-2-propanoyloxy-phenyl] propanoate] | C (>75% of the tested compound remaining) | C (>75% of the tested compound remaining) | C (>75% of the tested compound remaining) |  |  |
